Assay results from patent publication EP0273199A2, “Uses of 3,4-diphenyl piperidine derivatives or medicines, 3,4-diphenyl piperidine derivatives, and process for their preparation” (LABORATOIRES HOECHST S.A., priority 1986, dated 1988).
Several values for one entry are separate records, joined by “and”; a condition that tells them apart may be missing. Equal values may be shown once. Where a name gives a salt, the structure may show the parent alone. Read-outs that look alike come from different tables or passages of the source.

Legend:
Maus [1] = experiment: Hot plate test (licking and jumping), analgesia; assay type: in vivo
Procedure: Heizplattentest: Lecken und Springen, wie von Jacob und Blozovski beschrieben (Arch. Int. Pharmacodyn. 133, 296-209, 1961).
Die in Sekunden ausgedrückten Reaktionszeiten auf einer Heizplatte werden unter Berücksichtigung des Leckens der Vorderpfoten und Springen des Tieres als Kriterien bewertet. Die beiden Reaktionen werden am selben, anfänglich untrainierten Tier mit einer maximalen Ansprechzeit (Obergrenze) von 240 Sekunden beobachtet. Die Temperatur der Platte wird auf 56,6°C gehalten.
Morphin als positive Kontrolle wird subkutan und die übrigen Substanzen (mg/kg) werden intraperitoneal 30 Minuten vor dem Test verabreicht. Positives Ansprechen zeigt sich in einer Zunahme der Reaktionszeit.
Wird der schadensverhütenden Wirkung eine Substanz durch Naloxon entegengewirkt, so kann man schließen, daß die Substanz tatsächlich eine analgetische Wirkung besitzt.

Maus [2] = experiment: Behavioural despair test (Porsolt forced swimming); assay type: in vivo; details: mouse; for Dauer der Unbeweglichkeit: 30 min before test
Description: Test auf verzweifeltes Verhalten, wie von Porsolt u.a. (Arch. Int, Pharmacodyn. Ther. 229, 327 - 336, 1977) beschrieben.
Die Verbindungen werden intraperetoneal 30 Minuten vor dem Test verabreicht, und die Tiere werden vor dem erzwungenen Schwimmtest isoliert gehalten. Man bewertet die Dauer der Unbeweglichkeitsperioden in Sekunden ausgedrückt, die von der 2. bis zur 6. Minute nach dem Einsetzen des Tieres in Wasser gezählt werden.

L-5-Hydroxytryptophan = experiment: Potentiation of L-5-hydroxytryptophan effects (head twitches, tremor); assay type: in vivo, Maus; details: mouse
Procedure: L-5 HTP induziert an der Maus ruckartige Bewegungen des Kopfes (Kopfzuckungen). Die zu untersuchenden Substanzen werden den Tieren (10 Mäuse pro Dosis) intraperitoneal 30 Minuten vor dem L-5 HTP (4 mg/kg intraperitoneal) verabreicht. Die ruckartigen Kopfbewegungen und der Tremor werden 1 Minutre lang alle 10 Minuten im Verlauf einer Stunde bewertet. Desimipramin und Indalpin sind die Kontrol-(Vergleichs-)verbindungen. Ein antidepressiver Effekt zeigt sich durch eine Zunahme der ruckartigen Kopfbewegungen und des Tremors.

Motoraktivität = experiment: Actimetry (motor activity, photocell actimeter); assay type: in vivo, Maus
Description: Die Motoraktivität wird mittels Photozellenaktimetern bestimmt (Boissier und Simon, Arch. Int. Pharmacodyn. 1965, 158, 212-221).
Die Mäuse (10 oder ein Vielfaches von 10 pro Gruppe) werden unmittelbar nach i.p. Verabreichung der zu untersuchenden Verbindungen in das Aktimeter eingesetzt. Die Motoraktivität wird danach bis zur 60. Minute gemessen. De Zähler werden nach 30 Minuten abgelesen und dann auf 0 zurückgestellt und im Verlauf von 30 Minuten alle 10 Minuten abgelesen.
Die Beweglichkeit der mit den verschiedenen Verbindungen behandelten Tiere wird mit derjenigen einer destilliertes Wasser erhaltenden Kontrollgruppe verglichen.
Die eine psychostimulierende Aktivität besitzenden Produkte verursachen eine Zunahme der Beweglichkeit.

Maus [3] = experiment: Tail suspension test; assay type: in vivo; details: for minimal effective dose: ip; for % Antagonismus / Dauer der Unbeweglichkeit: mouse
Description: Schwanzaufhängungstest an der Maus wie von Stéru u.a. beschrieben (Psychopharmacology 85, 367-370, 1985).
Die Substanzen werden intraperitoneal 30 Minuten vor dem Test verabreicht und die Tiese isoliert (10 Mäuse pro Dosis).
Man bewertet die Dauer der Unbeweglichkeit, ausgedrückt in Sekunden über die 6 Minuten des Tests. Man untersucht auf eine Verkürzung dieser Unbeweglichkeitszeit.

Toxizität des Yohimbins = experiment: Potentiation of yohimbine toxicity; assay type: in vivo, Maus
Procedure: Wirkung auf die Toxizität des Yohimbins
Zur Zeit 0 erhalten die Mäuse entweder destilliertes Wasser oder verschiedene zu untersuchende Verbindungen i.p. 30 Minuten danach verabreicht man ihnen subkutan eine infratoxische Dosis von 25 mg/kg Yohimbinchlorhydrat.
Die Mortalität wird jede Stunde über einen Zeitraum von 4 Stunden verfolgt und dann nach 24 Stunden notiert.
Die eine antidepressive Aktivität besitzenden Produkte verursachen eine Potenzierung der Toxizität des Yohimbins.

Apomorphin 16 mg/kg = experiment: Antiapomorphine activity (apomorphine 16 mg/kg s.c., hypothermia); assay type: in vivo, Maus; details: ip
Procedure: Zur Zeit 0 nach Ausgleich der Reaktaltemperaturen werden die Mäuse (6 pro Gruppe) in deren Beobachtung gestattende Einzelkäfige (11 x 3,5 x 4 cm) eingeetzt. 30 Minuten nach i.p. bzw. p.o. Verabreichung der Testsubstanz erhalten sie Apomorphin subkutan in einer Dosis von 16 mg/kg. Die Rektaltemperatur wird 30 Minuten nach dem Apomorphin gemessen. Die Kontrolltiere erhalten destilliertes Wasser statt der zu untersuchenden Verbindungen. Die bei diesen Kontrolltieren, die 16 mg/kg Apomorphin erhalten haben, beobachtete Hypothermie liegt im Durchschnitt bei 33°C. Für jede Verbindungsdosis berechnet man die prozentuale Hemmung der Hypothermie.

[4] = system: durch Reserpin induzierten Hypothermie; experiment: Antireserpine activity (reserpine-induced hypothermia); assay type: in vivo, Maus; details: ip
Procedure: Zur Zeit 0 erhalten die Mäuse intraperitoneal Reserpin (2,5 mg/kg).
4 Stunden danach, wenn die Hypothermie genügend stark erscheint (30 bis 33°C), verabreicht man die verschiedenen zu untersuchenden Verbindungen i.p. oder p.o. Alle 30 Minuten über einen Zeitraum von 2 Stunden mißt man die Rektaltemperatur mit einer auf konstante Tiefe eingeführten, ein Thermoelement tragenden Sonde. Die Rektaltemperatur der mit verschiedenen erfindungsgemäßen Verbindungen behandelten Tiere wird mit der Temperatur einer Kontrollgruppe verglichen, die destilliertes Wasser auf die gleiche Weise wie die untersuchten Verbindungen erhält.
Die Akinesie (fehlende Bewegungen) und Ptose (Öffnungsgrad des Augenlids von 0 bis 4 nach Rubin u.a 1957) werden ebenfalls alle 30 Minuten über einen Zeitraum von 2 Stunden bewertet.
Die eine antidepressive Aktivität besitzenden Produkte wirken der durch Reserpin induzierten Hypothermie entgegen. Für jede Dosis der verabreichten Verbindung berechnet man die prozentuale Hemmung der Hypothermie.

[5] = system: durch Oxotremorin induzierten Hypothermie; experiment: Antioxotremorine activity (oxotremorine-induced hypothermia); assay type: in vivo, Maus; details: Mus musculus, ip, read-out: Erste wirksame Dosis Oxotremorin
Procedure: Nach Ausgleich der Rektaltemperaturen erhalten Mäuse (6 pro Gruppe) entweder destillietes Wasser oder die verschiedenen zu untersuchenden Verbindungen i.p.
30 Minuten danach verabreicht man intraperitoneal Oxotremorin in einer Dosis von 0,5 mg/kg.
Die Mäuse werden dan beobachtet: Tremor wird je nach der Intensität von 0 bis 3 bewertet, und die Akinesie wird alle 10 Minuten über einen Zeitraum von 30 Minuten auf Vorliegen oder Fehlen bestimmt.
Außerdem beobachtet man 2 Stunden lang das Erscheinen peripherer Symptome (Tränen, Darmentleerung). Die Rektaltemperatur wird alle 30 Minuten über eine Zeitraum von 2 Stunden nach der Verabreichung des Oxotremorins gemessen.
Die eine antidepressive Aktivität besitzenden Produkte wirken der durch Oxotremorin induzierten Hypothermie entgegen.
Für jede Dosis der Verbindung berechnet man die prozentuale Hemmung der Hypothermie.

[6] = system: Apomorphin 1 mg.kg^-1 s.c.; experiment: Apomorphine 1 mg/kg s.c. antagonism (no method given); assay type: in vivo; details: ip, Tabelle Ib; read-out: Erste wirksame Dosis Apomorphin 1 mg.kg^-1 s.c.
[7] = mouse, Tabelle 5a, 16 mg/kg, without Naloxon
[8] = mouse, reaction time, 8 mg/kg i.p., plate 56,6°C
[9] = mouse, reaction time, 16 mg/kg i.p., plate 56,6°C, 16 mg/kg
[10] = mouse, reaction time, 32 mg/kg i.p., plate 56,6°C
[11] = 8 mg/kg i.p., 30 min before L-5 HTP 4 mg/kg i.p.
[12] = 4 mg/kg i.p., 30 min before L-5 HTP 4 mg/kg i.p.

SMILES: c1ccc([C@@H]2CCNC[C@H]2c2ccccc2)cc1 (relative stereo) [DPPT, trans-3,4-Diphenylpiperidin]
- minimal effective dose (Maus [1]; Mus musculus, ip, 0.5 h, read-out: Effekt statistisch gesichert bei): 16 mg/kg
- Pfotenlecken (Maus [1]; [7]): 10,0 ± 1,5 p < 00,1 Sekunden and 7,9 ± 0,6 p < 0,02 Sekunden
- Sprünge (Maus [1]; [7]): 141 ± 12 p < 0,01 Sekunden and 125 ± 14 p < 0,01 Sekunden
- schadenverhütender Effekt, Wechselwirkung mit Naloxon (Maus [1]; mouse, hot plate): unterliegt Antagonismus durch Naloxon
- Pfotenlecken (Maus [1]; [8]): 7,0 ± 0,9 Sekunden
- Sprünge (Maus [1]; [8]): 103 ± 10 Sekunden
- Pfotenlecken (Maus [1]; [9]): 8,7 ± 1,2 p < 0,02 Sekunden and 9,9 ± 2,0 Sekunden
- Sprünge (Maus [1]; [9]): 154 ± 11 p < 0,001 Sekunden and 135 ± 14 p < 0,05 Sekunden
- Pfotenlecken (Maus [1]; [10]): 13,0 ± 1,7 p < 0,01 Sekunden
- Sprünge (Maus [1]; [10]): 193 ± 17 p < 0,001 Sekunden
- minimal effective dose at 16 mg/kg (Maus [2]; ip, Porsolt test, effect stronger at 16 mg/kg, read-out: bedeutsame Abnahme in der Dauer der Unbeweglichkeit, Dosis): ≥ 8 mg/kg
- % Antagonismus (Maus [2]; 8 mg/kg i.p.): 28%
- Dauer der Unbeweglichkeit (Maus [2]; 8 mg/kg i.p.): 141 ± 16 p < 0,02 Sekunden
- % Antagonismus (Maus [2]; 16 mg/kg i.p.): 47%
- Dauer der Unbeweglichkeit (Maus [2]; 16 mg/kg i.p.): 94 ± 17 p < 0,001 Sekunden
- minimal effective dose (L-5-Hydroxytryptophan; ip, read-out: Zunahme der durch L-5 HTP induzierten ruckartigen Kopfbewegungen, Effekt gesichert bei): 8 mg/kg
- Tremor (L-5-Hydroxytryptophan; [11]): 1,3 ± 0,4
- ruckartige Kopfbewegungen (L-5-Hydroxytryptophan; [11]): 4,7 ± 0,6 p < 0,01
- Tremor (L-5-Hydroxytryptophan; L-5 HTP potentiation): verstärkt
- stimulierender Effekt an der Maus (Motoraktivität; mouse, 16 mg/kg): keinen stimulierenden Effekt
- minimal effective dose (Maus [3]; Mus musculus, read-out: bedeutsame Verkürzung der Dauer der Unbeweglichkeit, Dosis): ≥ 2 mg/kg
- % Antagonismus (Maus [3]; 1 mg/kg i.p.): 25%
- Dauer der Unbeweglichkeit (Maus [3]; 1 mg/kg i.p.): 58 ± 13 Sekunden
- % Antagonismus (Maus [3]; 2 mg/kg i.p.): 51%
- Dauer der Unbeweglichkeit (Maus [3]; 2 mg/kg i.p.): 38 ± 7 p < 0,01 Sekunden
- % Antagonismus (Maus [3]; 4 mg/kg i.p.): 79%
- Dauer der Unbeweglichkeit (Maus [3]; 4 mg/kg i.p.): 16 ± 2 p < 0,001 Sekunden
- % Antagonismus (Maus [3]; 16 mg/kg i.p.): 84%
- Dauer der Unbeweglichkeit (Maus [3]; 16 mg/kg i.p.): 12 ± 3 p < 0,001 Sekunden

SMILES: Clc1ccc([C@@H]2CCNC[C@H]2c2ccccc2)cc1Cl [15 (HCl-Salz)]
- Erste wirksame Dosis Yohimbin (Toxizität des Yohimbins; mouse, i.p., only or lowest value of the cell): 1 mg/kg
- minimal effective dose (Apomorphin 16 mg/kg; Mus musculus, read-out: Erste wirksame Dosis Apomorphin 16 mg/kg, mouse, i.p., only or lowest value of the cell): 1 mg/kg
- minimal effective dose ([4]; Mus musculus, read-out: Erste wirksame Dosis Reserpin, mouse, i.p., only or lowest value of the cell): 1 mg/kg
- Aktimetrie (Motoraktivität; mouse, direction of change of motor activity): ↗
- minimal effective dose [5]: 0.25 mg/kg

SMILES: CNCCCN1c2ccccc2CCc2ccccc21 [DESIPRAMIN, reference compound]
- Pfotenlecken (Maus [1]; [8]): 8,2 ± 0,5 p < 0,001 Sekunden
- Sprünge (Maus [1]; [8]): 85 ± 7 Sekunden
- minimal effective dose (Toxizität des Yohimbins; ip, Tabelle Ib, read-out: Erste wirksame Dosis Yohimbin): 0.5 mg/kg
- minimal effective dose (Apomorphin 16 mg/kg; Tabelle Ib, read-out: Erste wirksame Dosis Apomorphin 16 mg.kg^-1 s.c.): 2 mg/kg
- % Antagonismus (Maus [2]; 8 mg/kg i.p.): 48%
- Dauer der Unbeweglichkeit (Maus [2]; 8 mg/kg i.p.): 105 ± 16 p < 0,001 Sekunden
- Tremor (L-5-Hydroxytryptophan; [12]): 0,5 ± 0,2
- ruckartige Kopfbewegungen (L-5-Hydroxytryptophan; [12]): 3,8 ± 0,4 p < 0,01
- minimal effective dose ([4]; Tabelle Ib, read-out: Erste wirksame Dosis Reserpin): 0.25 mg/kg
- Motilität (Motoraktivität; i.p., direction of change, Tabelle Ib): ↘
- minimal effective dose (Motoraktivität; ip, Tabelle Ib, read-out: Erste wirksame Dosis Motilität): 4 mg/kg
- minimal effective dose (Maus [3]; Tabelle Ib, read-out: Erste wirksame Dosis T.S.T. Maus): 1 to 4 mg/kg
- minimal effective dose [6]: > 16 mg/kg
